Here are results for one substance from patent US20140243261A1, “Method for treating diabetes and fatty liver disese by stimulating cellular metabolism” (priority 2013, published 2014).

In this assay the test system is resting carbohydrate metabolism. Nature of the assay: Resting metabolism by indirect calorimetric measurement in patients after pulsed IV insulin boluses with oral carbohydrate load. In kind it is in vivo, human. An excerpt: A basic treatment sequence, in one preferred embodiment, is as follows. • Settle the patient and establish an intravenous (IV) flow. • Measure blood glucose. • From Table 1, arrange for the specified grams of glucose be made available to the patient. • Have the patient consume the glucose relatively quickly (time scale of minutes). Drinking an appropriate amount of GLUCOLA at a convenient rate, such as over about 30 to 90 seconds, is a useful range and route of administration. • Start IV boluses of hormone. Insulin is a useful and typical hormone for this application. • Administer hormone at the selected quantity, rate, and pattern. These details are discussed in more detail in the following sections. A typical sequence will administer the selected amount of insulin (milliunits, determined as per kilogram body weight of the patient). A useful bolus is fairly quick, such as less than five seconds. Bolus injections are repeated periodically. A useful scheme is to give boluses every six minutes, over the course of one hour. It can be useful to give boluses more rapidly. Every four minutes is a useful number. Spacing of approximately three to approximately ten minutes can be useful, and we have not tested the outer ranges of usefulness.
One useful way of assessing metabolic activity and health is to measure the volume of Carbon Dioxide Production and a […]. In example (a) below, CO2 production initially equals 0.124 L per 30 seconds of exhaled breath, with a Resting Energy Ratio of 0.66. The ratio is how one can test the amount of carbohydrate metabolized and thus producing ATP to verify the patient is metabolizing carbohydrates. Below […] is lipid metabolism, and above […] is carbohydrate metabolism.
It is useful for the metabolic assessment of the present invention to express exhaled CO2 in volume/time, such as L/30 sec. This assessment varies by patient, according to their size, lung capacity and other factors understood by one skilled in the art of pulmonary function and metabolism.
A useful tool for assessing this is from Vacuumed. The Vacuumed website (www) vacuumed (corn) includes a good discussion of the resting metabolism measurement. • VO2=oxygen uptake (ml/min) • VCO2=carbon dioxide output (ml/min) • Respiratory quotient (RQ)=VCO2/VO2
• a. The treatment form has 3 one-hour sessions with from 10 to 60 minutes rest between treatments. • b. TREATMENT GOAL: The goal of the treatment is to obtain increased ATP production from carbohydrates, by metabolizing approximately 100 g of glucose for each hour including the rest period. A desirable treatment blood glucose for oral carbohydrates is 150 mg/dl or 8.3 mmol/L of blood glucose. That equates to approximately 380 calories of carbohydrates for each 1-hour treatment session, or a total of 1,140 calories total for the 4.5 to 5.5 hours. • c. In one embodiment, patients' serum glucose level is monitored every thirty minutes to determine carbohydrate uptake and utilization. Resting metabolic measurement by an indirect calorimeter such as the Vacuumed Metabolic Measurement system provides the level of production of ATP from carbohydrates to validate the increase. • d. In order to maintain serum glucose levels sufficient to provide for a carbohydrate load for the production of ATP, the serum glucose is maintained at 150 mg/dl or 8.3 mmol/L or more by starting at 10 milliunits per kilo and increasing by 2 milliunits each 30 minutes until the desired level is achieved. This level is constantly adjusted each 30 minutes until the nominal load is obtained, and then continues for the remainder of the treatment, and is used for subsequent treatments.
a. In a preferred implementation, these patients: • i. Were checked for serum blood glucose (BG) about every 30 minutes, and for about 4.5 hours. • ii. Were given glucose averaging approximately 1,200 calories over that time. • iii. […]

On to insulin, for which the “increase in ATP from carbohydrates” value reads like this: (person with Alzheimer's Disease, 83 kg, three one-hour sessions, total 33 units insulin, 14 milliunits/kg) “approximately 38%”; (person, 50.5 kg, three one-hour sessions, total 42 units insulin, 28 milliunits/kg) “approximately 280%”; (person, 70 kg, three one-hour sessions, total 45 units insulin, 22 milliunits/kg) “approximately 320%”; (person, 85 kg, three one-hour sessions, total 63 units insulin, 25 milliunits/kg) “approximately 205%”. Further, the “Carbon Dioxide Production after treatment” value was 0.208 L per 30 seconds (person with Alzheimer's Disease, 83 kg, three one-hour sessions, total 33 units insulin, 14 milliunits/kg, baseline 0.151); 0.342 L per 30 seconds (person, 50.5 kg, three one-hour sessions, total 42 units insulin, 28 milliunits/kg, baseline 0.121); 0.293 L per 30 seconds (person, 70 kg, three one-hour sessions, total 45 units insulin, 22 milliunits/kg, baseline 0.091); 0.255 L per 30 seconds (person, 85 kg, three one-hour sessions plus rest cycles, total 63 units insulin, 25 milliunits/kg, baseline 0.124). In addition, the “Resting Energy Ratio after treatment” value (person with Alzheimer's Disease, 83 kg, three one-hour sessions, total 33 units insulin, 14 milliunits/kg, baseline 0.79) is given as 0.99; the “Resting Energy Ratio after treatment” value (person, 50.5 kg, three one-hour sessions, total 42 units insulin, 28 milliunits/kg, baseline 0.67) is recorded as 0.98; the “Resting Energy Ratio after treatment” value (person, 70 kg, three one-hour sessions, total 45 units insulin, 22 milliunits/kg, baseline 0.63) is 0.98; the “Resting Energy Ratio after treatment” value (person, 85 kg, three one-hour sessions, total 63 units insulin, 25 milliunits/kg, baseline 0.66) was determined as 0.96.
